One data set concerns the target T1, mouse TLR9 (Mus musculus, UniProt Q9EQU3).
T1 construct: host or cells: HEK293 (293-mTLR9)
T1 sequence (Q9EQU3 26-1032): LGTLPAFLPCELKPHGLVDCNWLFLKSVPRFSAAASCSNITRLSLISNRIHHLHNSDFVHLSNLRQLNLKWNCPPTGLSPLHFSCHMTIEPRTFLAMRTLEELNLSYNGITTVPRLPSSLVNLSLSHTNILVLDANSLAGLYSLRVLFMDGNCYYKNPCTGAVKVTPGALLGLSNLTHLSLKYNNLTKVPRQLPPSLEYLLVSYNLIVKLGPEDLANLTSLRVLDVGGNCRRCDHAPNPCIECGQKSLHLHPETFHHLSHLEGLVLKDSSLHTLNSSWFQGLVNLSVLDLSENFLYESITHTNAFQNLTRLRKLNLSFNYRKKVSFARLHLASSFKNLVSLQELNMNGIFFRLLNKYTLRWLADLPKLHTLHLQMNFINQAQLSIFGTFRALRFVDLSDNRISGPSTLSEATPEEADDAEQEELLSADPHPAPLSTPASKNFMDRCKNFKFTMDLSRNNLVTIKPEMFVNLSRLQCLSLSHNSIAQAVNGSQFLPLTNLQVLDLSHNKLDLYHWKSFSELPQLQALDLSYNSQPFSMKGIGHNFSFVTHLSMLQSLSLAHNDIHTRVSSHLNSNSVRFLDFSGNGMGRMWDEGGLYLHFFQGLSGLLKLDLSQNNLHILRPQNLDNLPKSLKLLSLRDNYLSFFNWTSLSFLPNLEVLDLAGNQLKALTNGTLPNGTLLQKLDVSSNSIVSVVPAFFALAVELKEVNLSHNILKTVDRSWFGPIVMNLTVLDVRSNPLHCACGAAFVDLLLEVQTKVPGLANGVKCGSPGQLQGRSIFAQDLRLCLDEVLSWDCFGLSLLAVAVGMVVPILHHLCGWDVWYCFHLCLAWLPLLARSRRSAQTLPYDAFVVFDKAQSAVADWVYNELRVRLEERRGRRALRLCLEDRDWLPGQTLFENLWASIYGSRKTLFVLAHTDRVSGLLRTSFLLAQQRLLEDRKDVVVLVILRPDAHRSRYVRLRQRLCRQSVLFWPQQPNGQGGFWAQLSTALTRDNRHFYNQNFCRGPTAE
Put plainly: Mouse TLR9 reporter gene assay (NF-kB luciferase, HEK293). The following applies: CpG1826 100 nM. Type of data set: cell-based. How it is done: Compounds were dissolved in dimethyl sulfoxide. The day before transfection, mouse TLR7 genestably-expressing HE293 cell line (293XL-mTLR7 cell, InvivoGen, USA) and mouse TLR9 genestably-expressing HEK293 cell line (293-mTLR9 cell, InvivoGen) were seeded in collagen-coated 6-well plate (AGC techno glass) at 3 × 10^5 cells/well in DMEM (GIBCO) with 10% fetal bovine serum (GIBCO), and 10 μg ml^−1 Blastcidin S HCl (GIBCO) and incubated at 37 °C in 5% CO2. The plates were incubated over-night and then cotransfected with 1 μg (mouse TLR7) or 0.3 μg (mouse TLR9) of pNF-kB-Luciferase reporter in a 10:1 ratio with 4 μl of FuGene6 transfection reagent (Promega corporation, USA) following the manufacturer’s instructions. The plates were incubated 24 h. The cells re-seeded into 96-well plate (AGC techno glass) at 2 × 10^4 cells/well in DMEM (GIBCO) with 10% fetal bovine serum (GIBCO), and 10 μg ml^−1 Blastcidin S HCl (GIBCO) and then inhibition with various concentrations of compound. HCQ (mouse TLR7/9, Acros Organics, United Kingdom) was used as positive control. After 30 min, R848 (mouse TLR7/8 ligand) or CpG1826 (mouse TLR9 ligand, Hokkaido System Science Co., Ltd.) added to each well, wherein each final concentration were adjusted to 200 nM R848 (mouse TLR7) or 100 nM CpG1826 (mouse TLR9). The plates were then incubated an additional 6 h at 37 °C in 5% CO2, and then the luciferase activity was measured as activation of mouse TLR7 and 9. The luciferase activity was evaluated as follows: Bright-GloTM Luciferase Assay System (Promega) was added to the incubated sample (100 μl/well); after 2 min, the luminescence intensity of each sample was measured with a luminometer (Envision).

A short description of data set [1]: Pharmacokinetic profiling after oral dose in NZB/W F1 mice. Format: in vivo, mouse. The following applies: for plasma Concentration, individual mouse / concentration at 3 h / concentration at 6 h / concentration at 24 h: 100 mg/kg po; for concentration at 3 h / concentration at 6 h / concentration at 24 h: female, NZB/W F1, mouse, plasma, oral, 100 mg/kg. How it is done:
Cpd-7 was orally administered to 35-week-old female NZB/W F1 mice at 100 mg kg^−1 dissolved in 0.5 w/v% Methyl Cellulose 400 Solution (WAKO, Japan). Blood was collected over 24 h from the isoflurane-anesthetized mice via the jugular vein. The plasma samples were separated by centrifugation. Cpd-7 was extracted from the plasma samples by protein precipitation with methanol and measured using LC/MS/MS (HPLC: SHIMADZU CORPORATION, Japan; MS: AB Sciex Pte. Ltd., Japan). The lower limit of quantification was set at 5 ng/mL.

SMILES strings stand for the structures. Several values for one entry are separate records, joined by “and”; a condition that tells them apart may be missing. Identical values can stand only once. Like-named read-outs stand apart in the source and are kept apart here.

From PMC7562955 (Nature Communications, 2020) come the findings set out here.

With `CCOc1nc(C)c2nc(-c3cncc(F)c3)n(Cc3ccc(CN4C[C@@H]5C[C@H]4CN5C)cc3)c2n1` [Cpd-7], the “mouse TLR9 activity, reporter signal” value was 670258 at mouse TLR9 (compound 0.0001 nM (as headed)); 769686 at mouse TLR9 (compound 0.001 nM (as headed)); 682550 on mouse TLR9 (compound 0.003 nM (as headed)); 681778 on mouse TLR9 (compound 0.01 nM (as headed)); 778720 at mouse TLR9 (compound 0.03 nM (as headed)); 762582 at mouse TLR9 (compound 0.1 nM (as headed)). For the same compound, the “mouse TLR9 activity, reporter signal” value at mouse TLR9 (compound 0.3 nM (as headed)) amounted to 758536; at mouse TLR9 (compound 1 nM (as headed)) it was 750674; on mouse TLR9 (compound 3 nM (as headed)), 718794; at mouse TLR9 (compound 10 nM (as headed)), 519616; on mouse TLR9 (compound 30 nM (as headed)), 67454; on mouse TLR9 (compound 100 nM (as headed)) it was 0. Also, the “plasma Concentration, individual mouse” value in data set [1] (3 h) is 3240 ng/mL and 2770 ng/mL; in data set [1] (6 h), 948 ng/mL and 525 ng/mL; in data set [1] (24 h), 10 ng/mL and 7.55 ng/mL. Besides, the concentration at 3 h in data set [1] (3 h, n = 3, read-out: plasma Concentration, Mean) was 2890 ng/mL; in data set [1] (3 h, read-out: plasma Concentration, individual mouse), 2650 ng/mL. For the same compound, the concentration at 6 h worked out at 710 ng/mL in data set [1] (6 h, n = 3, read-out: plasma Concentration, Mean) and 658 ng/mL in data set [1] (6 h, read-out: plasma Concentration, individual mouse). In addition, the concentration at 24 h in data set [1] (24 h, n = 3, read-out: plasma Concentration, Mean) is 8.63 ng/mL; in data set [1] (24 h, read-out: plasma Concentration, individual mouse), 8.33 ng/mL. Also, the oral availability entry in data set [1] (single 100 mg kg−1 po) is on record as “orally available”.

As for `CCN(CCO)CCCC(C)Nc1ccnc2cc(Cl)ccc12` (stereo not shown) [HCQ, hydroxychloroquine, reference compound], the “mouse TLR9 activity, reporter signal” value was determined as 670258 on mouse TLR9 (compound 0.0001 nM (as headed)); 691508 at mouse TLR9 (compound 0.001 nM (as headed)); 691964 at mouse TLR9 (compound 0.003 nM (as headed)); 727784 on mouse TLR9 (compound 0.01 nM (as headed)); 642512 on mouse TLR9 (compound 0.03 nM (as headed)); 455236 on mouse TLR9 (compound 0.1 nM (as headed)). The “mouse TLR9 activity, reporter signal” value is reported as 212962 at mouse TLR9 (compound 0.3 nM (as headed)); 48988 on mouse TLR9 (compound 1 nM (as headed)); 7184 on mouse TLR9 (compound 3 nM (as headed)); 3474 at mouse TLR9 (compound 10 nM (as headed)); 3862 at mouse TLR9 (compound 30 nM (as headed)); 0 on mouse TLR9 (compound 100 nM (as headed)).
